Source: patent US20210308096A1, “COMPOSITION FOR PREVENTING OR TREATING PRURITUS” (INDUSTRIAL COOPERATION FOUNDATION CHONBUK NATIONAL …, priority 2017, published 2021)

Key:
Assay type in all cases: in vivo, BALB/c mice
[1] = test system: histamine-induced pruritus; experiment: Histamine-induced pruritus, number of scratching actions (MicroAct); conditions: mice; 1 μM and 10 μM injected subcutaneously together with 100 μg histamine; counted for 1 hour; p<0.01 versus histamine-treated group; FIG. 1
Procedure: (§1) Six-week-old, specific-pathogen-free male BALB/c mice were purchased from Orient Bio Korea Inc. (Gapyeong, Gyeonggi-do, Korea) and housed in a laminar flow cabinet. They were provided with standard solid chows ad libitum. At the onset of the test, the mice were 7-8 weeks old. All animal care and use were performed in accordance with the protocol of the Institutional Animal Care and Use Committee of the Chonbuk National University Medical School. Isoflavone-based compounds genistein, daidzein, glycitein and equol were purchased from Sigma. They were dissolved in DMSO and diluted with distilled water. […] Histamine, chloroquine and DNCB were also purchased from Sigma. Pruritus was induced by subcutaneously injecting histamine and chloroquine to the mice. Specifically, 0.1 mL of 2 mg/mL histamine and 4 mg/mL chloroquine were injected respectively. Pruritus was evaluated using MicroAct (Neuroscience, Inc., Tokyo, Japan) according to the method established by the company. The mouse was anesthetized and a magnet piece was inserted into the foot skin of the left hind leg. The mouse was put in a chamber surrounded by a coil and the number of scratching actions was recorded by a computer based on the electrical field generated by the scratching. The experimental conditions of the MicroAct were set as follows. Threshold p-p limit, 0.125 V; threshold minimum duration, 0.2 s; maximum amplitude range, 0.5 V; minimum amplitude range, 0.05 V; maximum frequency, 20 Hz; minimum frequency, 5 Hz. Recording was made only for 3 or more consecutive scratching actions. All the experiments were performed for at least 3 times and 2-3 mice were used per each group. Statistical data were represented by means and standard deviations. Statistical comparison was conducted by one-way ANOVA and the Fisher test. Significant difference between the groups was determined by the unpaired Student's t-test. The significant level of the p-value was less than 0.05. In order to measure the effect of inhibiting histamine-induced pruritus of genistein, daidzein, glycitein and equol, 100 μg of histamine was dissolved in 0.1 mL of physiological saline and injected subcutaneously to induce pruritus. After injecting each of genistein, daidzein, glycitein and equol at 1 μM and 10 μM together with the histamine, the number of scratching actions was counted for 1 hour.

[2] = test system: chloroquine-induced pruritus; experiment: Chloroquine-induced pruritus, number of scratching actions (MicroAct); conditions: mice; 1 μM and 10 μM injected subcutaneously together with 200 μg chloroquine; counted for 1 hour; p<0.01 versus chloroquine-treated group; FIG. 2
Procedure: as §1, with “inhibiting chloroquine-induced” for “inhibiting histamine-induced”, “equol, 200” for “equol, 100”, “of chloroquine” for “of histamine”, “the chloroquine,” for “the histamine,”

DNCB-induced pruritus = experiment: DNCB-induced pruritus, number of scratching actions (MicroAct); conditions: DNCB-sensitized mice; 1 μM or 10 μM applied on the right ear with DNCB; counted for 1 hour; p<0.01 versus DNCB-treated group; FIG. 3
Procedure: Six-week-old, specific-pathogen-free male BALB/c mice were purchased from Orient Bio Korea Inc. (Gapyeong, Gyeonggi-do, Korea) and housed in a laminar flow cabinet. They were provided with standard solid chows ad libitum. At the onset of the test, the mice were 7-8 weeks old. All animal care and use were performed in accordance with the protocol of the Institutional Animal Care and Use Committee of the Chonbuk National University Medical School. Isoflavone-based compounds genistein, daidzein, glycitein and equol were purchased from Sigma. They were dissolved in DMSO and diluted with distilled water. […] Histamine, chloroquine and DNCB were also purchased from Sigma. Pruritus was induced with DNCB. Specifically, after removing hair from the right ear of the mouse, 20 μL of 1% DNCB dissolved in a mixture of olive oil and ethanol (1:4) was applied for sensitization. 10 μL of 0.5% DNCB was applied on the same ear 7 days later (Exp. Dermatol., 2002, 11:285-291). Pruritus was evaluated using MicroAct (Neuroscience, Inc., Tokyo, Japan) according to the method established by the company. The mouse was anesthetized and a magnet piece was inserted into the foot skin of the left hind leg. The mouse was put in a chamber surrounded by a coil and the number of scratching actions was recorded by a computer based on the electrical field generated by the scratching. The experimental conditions of the MicroAct were set as follows. Threshold p-p limit, 0.125 V; threshold minimum duration, 0.2 s; maximum amplitude range, 0.5 V; minimum amplitude range, 0.05 V; maximum frequency, 20 Hz; minimum frequency, 5 Hz. Recording was made only for 3 or more consecutive scratching actions. All the experiments were performed for at least 3 times and 2-3 mice were used per each group. Statistical data were represented by means and standard deviations. Statistical comparison was conducted by one-way ANOVA and the Fisher test. Significant difference between the groups was determined by the unpaired Student's t-test. The significant level of the p-value was less than 0.05. In order to measure the effect of inhibiting DNCB-induced pruritus of genistein, daidzein, glycitein and equol, 20 μL of a 1% DNCB solution was applied on the right ear of the mouse for 7 days for sensitization. 10 μL of 0.5% DNCB was applied on the same ear 7 days later, 1 μM or 10 μM genistein, daidzein, glycitein or equol and 1% DNCB dissolved in physiological saline was applied on the right ear (physiological saline was applied for a negative control group) and the number of scratching actions was counted for 1 hour.

[3] = test system: SLIGRL-induced pruritus (agonist for the protease activated receptor 2); experiment: SLIGRL-induced pruritus, number of scratching actions (MicroAct); conditions: mice; 1 μM and 10 μM injected subcutaneously together with 20 μg SLIGRL; counted for 1 hour; p<0.05 versus SLIGRL-treated group; FIG. 4
Procedure: Six-week-old, specific-pathogen-free male BALB/c mice were purchased from Orient Bio Korea Inc. (Gapyeong, Gyeonggi-do, Korea) and housed in a laminar flow cabinet. They were provided with standard solid chows ad libitum. At the onset of the test, the mice were 7-8 weeks old. All animal care and use were performed in accordance with the protocol of the Institutional Animal Care and Use Committee of the Chonbuk National University Medical School. Isoflavone-based compounds genistein, daidzein, glycitein and equol were purchased from Sigma. They were dissolved in DMSO and diluted with distilled water. […] Histamine, chloroquine and DNCB were also purchased from Sigma. Pruritus was induced with SLIGRL. Specifically, 20 μg of SLIGRL was dissolved in 0.1 mL of physiological saline and injected subcutaneously to induce pruritus. Pruritus was evaluated using MicroAct (Neuroscience, Inc., Tokyo, Japan) according to the method established by the company. The mouse was anesthetized and a magnet piece was inserted into the foot skin of the left hind leg. The mouse was put in a chamber surrounded by a coil and the number of scratching actions was recorded by a computer based on the electrical field generated by the scratching. The experimental conditions of the MicroAct were set as follows. Threshold p-p limit, 0.125 V; threshold minimum duration, 0.2 s; maximum amplitude range, 0.5 V; minimum amplitude range, 0.05 V; maximum frequency, 20 Hz; minimum frequency, 5 Hz. Recording was made only for 3 or more consecutive scratching actions. All the experiments were performed for at least 3 times and 2-3 mice were used per each group. Statistical data were represented by means and standard deviations. Statistical comparison was conducted by one-way ANOVA and the Fisher test. Significant difference between the groups was determined by the unpaired Student's t-test. The significant level of the p-value was less than 0.05. In order to measure the effect of inhibiting pruritus induced by SLIGRL, which is an agonist for the protease activated receptor 2, of genistein, daidzein, glycitein and equol, 20 μg of SLIGRL was dissolved in 0.1 mL of physiological saline and injected subcutaneously to induce pruritus. After injecting each of genistein, daidzein, glycitein and equol at 1 μM and 10 μM together with the SLIGRL, the number of scratching actions was counted for 1 hour.

TSLP-induced pruritus = experiment: TSLP-induced pruritus, number of scratching actions (MicroAct); conditions: mice; 1 μM and 10 μM injected subcutaneously together with 0.67 μg TSLP; counted for 1 hour; p<0.05 versus TSLP-treated group; FIG. 5
Procedure: Six-week-old, specific-pathogen-free male BALB/c mice were purchased from Orient Bio Korea Inc. (Gapyeong, Gyeonggi-do, Korea) and housed in a laminar flow cabinet. They were provided with standard solid chows ad libitum. At the onset of the test, the mice were 7-8 weeks old. All animal care and use were performed in accordance with the protocol of the Institutional Animal Care and Use Committee of the Chonbuk National University Medical School. Isoflavone-based compounds genistein, daidzein, glycitein and equol were purchased from Sigma. They were dissolved in DMSO and diluted with distilled water. […] Histamine, chloroquine and DNCB were also purchased from Sigma. Pruritus was induced with TSLP. 0.67 μg of TSLP was dissolved in 0.1 mL of physiological saline and injected subcutaneously to induce pruritus. Pruritus was evaluated using MicroAct (Neuroscience, Inc., Tokyo, Japan) according to the method established by the company. The mouse was anesthetized and a magnet piece was inserted into the foot skin of the left hind leg. The mouse was put in a chamber surrounded by a coil and the number of scratching actions was recorded by a computer based on the electrical field generated by the scratching. The experimental conditions of the MicroAct were set as follows. Threshold p-p limit, 0.125 V; threshold minimum duration, 0.2 s; maximum amplitude range, 0.5 V; minimum amplitude range, 0.05 V; maximum frequency, 20 Hz; minimum frequency, 5 Hz. Recording was made only for 3 or more consecutive scratching actions. All the experiments were performed for at least 3 times and 2-3 mice were used per each group. Statistical data were represented by means and standard deviations. Statistical comparison was conducted by one-way ANOVA and the Fisher test. Significant difference between the groups was determined by the unpaired Student's t-test. The significant level of the p-value was less than 0.05. In order to measure the effect of inhibiting thymic stromal lymphopoietin (TSLP)-induced pruritus of genistein, daidzein, glycitein and equol, 0.67 μg of TSLP solution dissolved in 0.1 mL of physiological saline and injected subcutaneously to induce pruritus. After injecting each of genistein, daidzein, glycitein and equol at 1 μM and 10 μM together with the TSLP, the number of scratching actions was counted for 1 hour.

Structure (SMILES)	Effect of inhibiting histamine-induced pruritus (number of scratching actions) [1]	Effect of inhibiting chloroquine-induced pruritus (number of scratching actions) [2]	Effect of inhibiting DNCB-induced pruritus (number of scratching actions) (DNCB-induced pruritus)	Effect of inhibiting SLIGRL-induced pruritus (number of scratching actions) [3]	Effect of inhibiting TSLP-induced pruritus (number of scratching actions) (TSLP-induced pruritus)
O=c1c(-c2ccc(O)cc2)coc2cc(O)cc(O)c12 [Genistein, genistein]	significantly inhibited	significantly inhibited	significantly inhibited	significantly inhibited	significantly inhibited
O=c1c(-c2ccc(O)cc2)coc2cc(O)ccc12 [daidzein]	significantly inhibited	significantly inhibited	significantly inhibited	significantly inhibited	significantly inhibited
Oc1ccc([C@H]2COc3cc(O)ccc3C2)cc1 [equol]	did not inhibit	did not inhibit	did not inhibit	did not inhibit	did not inhibit
COc1cc2c(=O)c(-c3ccc(O)cc3)coc2cc1O [glycitein]	did not inhibit	did not inhibit	did not inhibit	did not inhibit	did not inhibit
